Laboratory results published in patent US20080146555A1, “Uses of Kinase Inhibitors and Compositions Thereof” (GPC Biotech, Inc, priority 2004, published 2008).
Structures can show the parent of a compound that is named as a salt. Where two headings read alike, the source gives them in different places.

What was measured:
[1] = molecular target: Cdk6 (Homo sapiens, UniProt Q00534); experiment: Cdk6 inhibition; type: biochemical
Description: Further inhibition results for subject compounds of the invention against other CDKs and further kinases are shown in Table 5, Table II and described in Example 6.
Table 3, Table 4, Table 5 and Table II show the results obtained for inhibition of a broad range of such kinases for subject compounds of the invention.

[2] = molecular target: T1, MEK1 (Homo sapiens, UniProt Q02750); experiment: MEK1 kinase assay; type: biochemical
T1 construct: purchased Upstate 14-429
T1 sequence (Q02750 whole entry, species assumed): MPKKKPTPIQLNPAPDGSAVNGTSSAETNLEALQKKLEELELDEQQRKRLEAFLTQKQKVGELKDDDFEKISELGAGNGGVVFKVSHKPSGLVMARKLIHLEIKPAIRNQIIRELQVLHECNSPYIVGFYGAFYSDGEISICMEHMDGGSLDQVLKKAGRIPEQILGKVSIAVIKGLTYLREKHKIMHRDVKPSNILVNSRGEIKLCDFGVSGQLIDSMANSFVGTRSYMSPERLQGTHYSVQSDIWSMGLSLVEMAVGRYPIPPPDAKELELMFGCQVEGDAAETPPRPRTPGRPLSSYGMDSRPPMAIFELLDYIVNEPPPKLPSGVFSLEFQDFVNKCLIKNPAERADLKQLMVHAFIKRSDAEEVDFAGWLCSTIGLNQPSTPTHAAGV
Protocol: 1. Assay Dilution Buffer I (ADBI, Catalog #20-108): 20 mM MOPS, pH 7.2, 25 mM β-glycerol phosphate, 5 mM EGTA, 1 mM sodium orthovanadate, 1 mM dithiothreitol. • 2. Magnesium/ATP Cocktail (Catalog #20-113): 500 μM cold ATP and 75 mM magnesium chloride in ADBI. • 3. MEK1, active: Dilute to 0.5-5 ng/μl with ADBI containing 0.03% Brij-35 and 1 mg/ml BSA. Use 5 μl per assay point. • 4. MAP Kinase 2/Erk2, unactive (Catalog #14-198): Use 1 μg per assay point. • 5. MBP Substrate (Catalog #13-104): Prepare a 3.33 mg/ml stock solution with ADBI. Use 2.5 μl per assay for a final concentration of 0.33 mg/ml per assay point. • 6. Magnesium/ATP Cocktail (Catalog #20-113): 75 mM MgCl2 and 500 μM ATP in 20 mM MOPS, pH 7.2, 25 mM β-glycerol phosphate, 5 mM EGTA, 1 mM sodium orthovanadate, 1 mM dithiothreitol.
7. [γ-^32P]ATP: Stock 1 mCi/100 μl (3000 Ci/mmol, obtained from Perkin Elmer, Catalog #BLU002A). Make 10 μl aliquots (100 μCi/vial). Before starting the assay, dilute the Magnesium/ATP Cocktail 1:1 with sterile, distilled water. Then dilute an aliquot of [γ-^32P]ATP to 1 μCi/μl with 90 μl of the diluted Magnesium/ATP Cocktail. […]
• 1. Add 1 μl of ADBI to a microcentrifuge tube. • 2. Add 5 μl of Magnesium/ATP cocktail. • 3. Add 5 μl of MEK1, active (2.5-25 ng) • 4. Add 4 μl (1 μg) of unactive MAP Kinase 2/Erk 2. • 5. Incubate at 30° C. for 30 minutes. • 6. Remove 1 μl of this mixture and add to Stage Two component mixture.
• 1. Add 12.5 μl of ADBI. • 2. Add 2.5 μl of MBP stock solution. • 3. Add 10 μl of diluted [γ-^32P] ATP. • 4. Incubate for at 30° C. 10 minutes. • 5. Transfer a 20 μl aliquot onto the center of a 2 cm×2 cm P81 paper square. • 6. Wash the paper squares three times with 0.75% phosphoric acid for 5 minutes per wash. • 7. Wash the paper squares once with acetone for five minutes. • 8. Transfer the paper squares to a scintillation vial and add 5 ml scintillation cocktail. • 9. Read in scintillation counter. Compare cpm of enzyme samples to cpm of control samples that contain no enzyme (background control).

[3] = tested on: 1A9-PTX10; experiment: SRB cytotoxicity, tubulin mutated paclitaxel-resistant cells; type: cell-based, human; conditions: for IC50: Homo sapiens, 1A9/ptx-10, 72 h, SRB; for RR (relative resistance) 1A9-PTX10 vs 1A9: ratio of mean IC50 resistant/sensitive
Protocol: In these experiments, the P-glycoprotein expressing NCI-Adr resistant subline (Vickers et al., 1989. Mol Endocrinology 3 (1):157-164) was used. […] Briefly, cells were plated in 96 well dishes 24 hours prior to compound addition. Where noted, they were exposed to verapamil for 4 hours prior to compound addition and then throughout the treatment period (72 hours). The assay was terminated with the addition of cold TCA to a final concentration of 10% and the plates were incubated for one hour at 4° C. The plates were then washed 5 times with water and 100 μl of a Sulforhodamine B solution (4%) was added to each well. The plate was then incubated for 10 minutes at room temperature before removal of unbound dye by washing with 1% acetic acid.
The tubulin mutated, paclitaxel-resistant human ovarian carcinoma cell line 1A9-PTX10 and its parental paclitaxel-sensitive cell line 1A9 were derived from the A2780 human ovarian carcinoma cell line (J Biol Chem (1997) 272, 17118-17124).

[4] = molecular target: T2, Fes (Homo sapiens, UniProt P07332); experiment: Fes kinase assay; type: biochemical
T2 construct: purchased Upstate 14-473
T2 sequence (P07332 whole entry): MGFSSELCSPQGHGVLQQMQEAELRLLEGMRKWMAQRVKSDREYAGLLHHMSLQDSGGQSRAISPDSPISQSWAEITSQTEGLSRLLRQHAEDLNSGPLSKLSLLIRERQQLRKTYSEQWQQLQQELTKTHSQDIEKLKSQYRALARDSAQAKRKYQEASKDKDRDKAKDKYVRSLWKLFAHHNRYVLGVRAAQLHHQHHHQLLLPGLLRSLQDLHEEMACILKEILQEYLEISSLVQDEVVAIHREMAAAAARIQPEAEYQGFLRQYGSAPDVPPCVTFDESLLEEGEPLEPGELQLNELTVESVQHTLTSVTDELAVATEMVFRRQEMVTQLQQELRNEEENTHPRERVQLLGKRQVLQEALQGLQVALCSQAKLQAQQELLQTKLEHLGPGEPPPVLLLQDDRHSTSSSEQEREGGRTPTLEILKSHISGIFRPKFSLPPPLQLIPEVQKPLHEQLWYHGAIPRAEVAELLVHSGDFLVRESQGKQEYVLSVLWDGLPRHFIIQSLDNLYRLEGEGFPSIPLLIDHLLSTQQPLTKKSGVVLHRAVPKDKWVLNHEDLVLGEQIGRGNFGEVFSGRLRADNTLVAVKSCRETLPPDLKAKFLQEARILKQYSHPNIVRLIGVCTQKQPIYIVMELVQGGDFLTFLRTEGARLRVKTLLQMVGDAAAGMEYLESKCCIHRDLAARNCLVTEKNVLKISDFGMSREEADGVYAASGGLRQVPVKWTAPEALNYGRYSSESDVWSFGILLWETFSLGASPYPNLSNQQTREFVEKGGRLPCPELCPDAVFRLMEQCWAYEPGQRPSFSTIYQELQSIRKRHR
Protocol: • 1. 2.5× Reaction Buffer: 50 mM MOPS, pH 7.0, 2.5 mM EDTA. • 2. Poly(Glu4-Tyr) (4:1): Prepare a 1 mg/ml stock in sterile distilled water. Add 2.5 μl per assay point for a final concentration of 0.1 mg/ml. • 3. Enzyme Dilution Buffer (EDB): 20 mM MOPS, pH 7.0, 1 mM EDTA, 5% glycerol, 0.01% Brij-35, 0.1% β-mercaptoethanol, 1 mg/ml BSA. • 4. Fes/Fps, active: Dilute to 4-40 ng/μl with EDB. Use 2.5 μl per assay. • 5. Magnesium/ATP Cocktail (Catalog #20-113): 75 mM MgCl2 and 500 μM ATP in 20 mM MOPS, pH 7.2, 25 mM β-glycerol phosphate, 5 mM EGTA, 1 mM sodium orthovanadate, 1 mM dithiothreitol. • 6. [γ-^32P]ATP: Stock 1 mCi/100 μl (3000 Ci/mmol, obtained from PerkinElmer, Catalog #LU002A). Make 10 μl aliquots (100 μCi/vial). Before starting the assay, dilute the Magnesium/ATP Cocktail 1:1 with sterile, distilled water. Then dilute an aliquot of [γ-^32P]ATP to 1 μCi/μl with 90 μl of the diluted Magnesium/ATP Cocktail. Use 10 μl per assay point for a final ATP concentration of 100 μM per assay point.
• 1. Add 10 μl of 2.5× Reaction Buffer per assay. • 3. Add 2.5 μl of Fes/Fps, active (10-100 ng). • 4. Add 10 μl of the diluted [γ-^32P]ATP mixture. • 5. Incubate for 10 minutes at 30° C. • 6. Spot 20 μl onto the center of a 2 cm×2 cm […]. • 7. Wash the assay squares three times for 5 minutes with 0.75% phosphoric acid. • 8. Wash the assay squares once for 5 minutes with acetone. • 9. Transfer the assay squares to vials and add 5 ml scintillation cocktail. • 10. Read in scintillation counter. Compare cpm of enzyme samples to cpm of control samples.

[5] = kinase panel, 10 μM ATP, read-out: MAPK 1 / MEK1 IC50
[6] = read-out: MAP2K1 Inhibition (IC50)
[7] = read-out: FES Inhibition (IC50)

Cdk6, sequence (Q00534 whole entry): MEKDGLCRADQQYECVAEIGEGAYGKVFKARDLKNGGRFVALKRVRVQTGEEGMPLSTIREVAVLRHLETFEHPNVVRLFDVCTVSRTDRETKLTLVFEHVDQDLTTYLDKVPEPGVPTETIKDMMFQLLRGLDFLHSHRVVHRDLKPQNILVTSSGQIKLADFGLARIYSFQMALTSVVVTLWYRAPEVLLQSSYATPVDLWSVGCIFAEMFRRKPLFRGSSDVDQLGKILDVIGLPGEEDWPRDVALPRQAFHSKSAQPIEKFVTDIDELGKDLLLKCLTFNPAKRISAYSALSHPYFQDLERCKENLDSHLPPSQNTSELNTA
Cdk6, sequence (P30279 whole entry partner): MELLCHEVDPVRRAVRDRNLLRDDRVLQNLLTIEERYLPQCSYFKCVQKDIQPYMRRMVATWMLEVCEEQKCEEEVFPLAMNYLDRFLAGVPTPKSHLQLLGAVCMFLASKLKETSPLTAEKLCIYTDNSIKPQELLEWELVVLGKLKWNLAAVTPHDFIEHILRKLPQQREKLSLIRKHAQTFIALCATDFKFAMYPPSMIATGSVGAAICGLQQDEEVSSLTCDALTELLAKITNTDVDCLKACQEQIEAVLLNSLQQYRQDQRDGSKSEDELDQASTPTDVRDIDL

| Structure (SMILES) | IC50 [1] [nM] | IC50 [2, 5] [nM] | IC50 [2, 6] [nM] | IC50 [3] [nM] | RR (relative resistance) 1A9-PTX10 vs 1A9 [3] | IC50 [4, 7] [nM] | IC50 ([4]; kinase panel, read-out: Fes IC50) [nM] |
| --- | --- | --- | --- | --- | --- | --- | --- |
| CC(C)N1CCN(C(=O)COc2ccc(-c3n[nH]c4c3C(=O)c3c(NC(=O)NN5CCOCC5)cccc3-4)cc2)CC1 [Compound A37] | < 100 | 10 to 100 | < 50 | 44.3 | 3.3 | < 100 |  |
| COCCN1CCN(Cc2ccc(-c3n[nH]c4c3C(=O)c3c(NC(=O)NN5CCOCC5)cccc3-4)cc2)CC1 [Compound B16, N-[3-(4-{[4-(2-methoxyethyl)piperazinyl]methyl}phenyl)-4-oxoindeno[2,3-d]pyrazol-5-yl](morpholin-4-ylamino)carboxamide dihydrochloride] | < 50 | < 100 | < 100 | 25 | 2.3 | < 100 | < 100 |
